The values below come from US20180078615A1, “USE OF CCL2 TO INHIBIT ABNORMAL UTERINE BLEEDING” (UNIVERSITY OF SOUTH FLORIDA, priority 2015, published 2018).

Assay [1] concerns VSMCs. Briefly: VSMC apoptosis assay (ELISA, cleaved caspase-3 immunostaining, nuclear fragmentation). Type of assay: cell-based, human. Particulars: 10^−7 M, 48 h, vs control. How it is done:
(§1) VSMCs were grown in 96-well plates or 8-well chamber slides and incubated with 10^−7 M of MPA (Sigma-Aldrich) or ETO (Organon) or P4 (Sigma-Aldrich) or vehicle±rCCL2 (R&D Systems)±STAT1 inhibitor, 5′-methyl-thioadenosine (MTA; EMD Millipore) (19) for 48 or 72 h. VSMCs were then analyzed for apoptosis by an ELISA based apoptosis kit (Roche) or cleaved-caspase 3 immunostaining. VSMC proliferation was measured by BrdU incorporation Kit (Cell Signaling). (See further details in SI Materials and Methods).
This assay detects late-stage apoptosis by quantifying specific mono- and oligonucleosomes in the cytoplasmic fraction of cell lysates using mouse monoclonal antibodies directed against DNA and histones. In late-stage apoptosis (following nuclear fragmentation), cell cytoplasm contains mono- and oligonucleosomes, absent in normal (nonapoptotic) cells. The nucleosomes contained in the sample bind via their histone component to the immobilized antihistone antibody. Anti-DNA peroxidase reacts with the DNA part in the nucleosome. After removal of unbound peroxidase conjugate, the amount of peroxidase retained in the immunocomplex is detected by measuring colorimetric reaction.
Apoptosis index was determined in a second set of experiments. VSMC cultures (10,000 cells per wells) were incubated in 96-well plates with the treatments described above, at room temperature. Briefly, at the end of 48- or 72-h incubation periods, cells were washed three times in ice-cold PBS and cell lysate prepared by incubating each well in 200-μL lysis buffer for 30 min, followed by centrifugation at 200×g for 10 min. Duplicate 20-μL supernatant of cytoplasmic fractions from each treatment were carefully pipetted into streptavidin-coated microplates. A 20-μL VSMC culture supernatant devoid of cell fractions was used as a negative control, and 1-, 5-, 10-, and 20-μL supernatants containing camptothecin-induced apoptotic cell fractions were used as positive controls (ELISA based cell death detection kit^plus, Roche Applied Science). Incubation buffer was used as background control (Roche Applied Science). Then, each well was brought to 100 μL by adding immunoreagent (peroxidase-conjugated anti-DNA complex) and incubated by gentle shaking (300 rpm) for 2 h. […] The immunoreaction was stopped with 100 μL ABTS Stop Solution and measured at 405 nm against 100 μL ABTS solution+100 μL ABTS stop solution as a blank (reference wavelength 490 nm) using Spectra Max190 microplate reader (Molecular Devices). […]
The first set of eight-well chamber slides was processed for cleaved caspase-3 immunocytochemistry. […] Cleaved caspase-3 immunoreactivity in groups was then evaluated as described for αSMA in the HSOCRE section. […]
In general terms: ELISA stands for enzyme-linked immunosorbent assay.

The test system of assay [2] is VSMCs. Briefly: VSMC proliferation assay by BrdU incorporation. Type of assay: cell-based, human. Particulars: 10^−7 M, 48-h treatment, mean±SEM; control 0.81±0.03. The protocol:
as §1
VSMCs were thawed and cultured in T-75 cell culture flasks in medium 231 (M231; Life Technologies) with smooth muscle growth supplement (5% FBS; 2 ng/mL human basic fibroblast growth factor, 0.5 ng/mL human epidermal growth factor, 5 ng/mL heparin, 0.2 μg/mL insulin and 5 μg/mL BSA; Life Technologies) with 100 U/mL penicillin, 100 μg/mL streptomycin, and 0.25 μg/mL fungizone. Confluent VSMCs were washed twice with 1×PBS to remove residual serum, and then passaged (5,000 cells per well) in 96-well plates and incubated in parallel in M231 with 1% charcoal striped FBS with 0.1% ethanol (vehicle, control), 10^−7 M MPA (Sigma-Aldrich), 10^−7 M ETO (Organon), or 10^−7 M P4 (Sigma-Aldrich)±rCCL2 (monocyte chemotactic protein-1; R&D Systems)±STAT1 inhibitor, 5′-methyl-thioadenosine (MTA; EMD Millipore) for 48 or 72 h.
BrdU (Cell Signaling) 1× in 100-μL M231 was added to each well during the final 24 h of incubation. At the end of 48- or 72-h incubation period, medium was removed and the wells washed twice with ice-cold PBS. VSMC proliferation was measured using BrdU cell proliferation Kit (Cell Signaling) at room temperature. Cells was incubated in 100 μL per well of the fixing/denaturing solution for 30 min, and then replaced by 100 μL per well BrdU detection antibody solution for 1 h. Following three rinses with wash buffer, plates were incubated in HRP-conjugated secondary antibody (100 μL per well) for 30 min. After three additional rinses with wash buffer, tetramethylbenzidine substrate solution (100 μL per well) was added for 20 min and the reaction stopped by adding 100 μL per well STOP solution. Absorbance was measured at 450 nm using Spectra Max190 microplate reader (Molecular Devices) to detect BrdU incorporation in each well.
(In general: Incorporation of labelled thymidine or its analogues reports DNA synthesis.)

SMILES strings stand for the structures. Entries after “also recorded” stand apart in the source; their conditions may differ.

As for `C#C[C@]1(O)CC[C@H]2[C@@H]3CCC4=CC(=O)CC[C@@H]4[C@H]3C(=C)C[C@@]21CC` [ETO, etonogestrel], the apoptotic index result with VSMCs [1] is recorded as “unaffected; also recorded: did not affect”. Further, the BrdU incorporation in the assay on VSMCs [2] amounted to 0.40±0.03.
As to `CC(=O)O[C@]1(C(C)=O)CC[C@H]2[C@@H]3C[C@H](C)C4=CC(=O)CC[C@]4(C)[C@H]3CC[C@@]21C` [MPA, medroxyprogesterone acetate], the figures for the apoptotic index entry with VSMCs [1] and in the assay on VSMCs [1] (listed as WA) were “did not affect” and “unaffected”, respectively. In the assay with VSMCs [2], the BrdU incorporation amounted to 0.31±0.02.
`CC(=O)[C@H]1CC[C@H]2[C@@H]3CCC4=CC(=O)CC[C@]4(C)[C@H]3CC[C@]12C` [P4, progesterone]: the apoptotic index result in the assay on VSMCs [1] is recorded as “unaffected”. In the assay with VSMCs [2], this compound registered a BrdU incorporation of 0.71±0.05.
